Patent US20100181035A1, “GLUCOSYLTRANSFERASES” (UNIVERSITY OF YORK, priority 2003, published 2010)

Tests used:
[1] = biological target: T1, glucosyltransferase 72E1 (UGT72E1) (Arabidopsis thaliana, UniProt Q94A84); experiment: Glucosyltransferase activity assay with recombinant UGT72E1, HPLC analysis; type: biochemical; conditions: substrate glucosylation; 2 μg enzyme, 1 mM phenolic substrate, 5 mM UDP-glucose, 100 mM Tris-HCl pH 7.0, 30° C., 1 h; HPLC peak area
T1 construct: made in house; host or cells: E. coli
T1 sequence (Q94A84 1-487): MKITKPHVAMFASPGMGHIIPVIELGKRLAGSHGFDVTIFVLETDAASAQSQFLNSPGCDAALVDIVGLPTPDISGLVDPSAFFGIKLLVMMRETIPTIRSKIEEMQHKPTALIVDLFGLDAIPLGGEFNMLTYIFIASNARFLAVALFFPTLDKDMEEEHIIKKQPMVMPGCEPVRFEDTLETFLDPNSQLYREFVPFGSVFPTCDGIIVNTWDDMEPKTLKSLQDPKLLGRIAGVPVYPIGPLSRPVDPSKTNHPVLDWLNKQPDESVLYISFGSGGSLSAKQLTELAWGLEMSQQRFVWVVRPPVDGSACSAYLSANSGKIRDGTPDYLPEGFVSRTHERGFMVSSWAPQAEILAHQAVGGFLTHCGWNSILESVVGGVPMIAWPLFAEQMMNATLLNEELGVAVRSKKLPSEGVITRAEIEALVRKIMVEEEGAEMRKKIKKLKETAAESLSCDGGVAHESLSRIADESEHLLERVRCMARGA
Experimental: Recombinant UGT72E1 was expressed and purified from E. coli as described previously (Lim et al., 2001, J. Biol. Chem. 276, 4344-4349). The enzyme (2 μg) was incubated with 1 mM phenolic substrates, 5 mM UDP-glucose, 100 mM Tris-HCl, pH 7.0 in a total volume 200 μl. The reaction mix was incubated at 30° C. for 1 h and was analysed using HPLC subsequently.
Coniferyl alcohol: 10-25% acetonitrile (0.1% TFA), 306 nm Sinapyl alcohol: 10-25% acetonitrile (0.1% TFA), 285 nm p-coumaryl alcohol: 10-25% acetonitrile (0.1% TFA), 311 nm coniferyl aldehyde: 10-47% acetonitrile (0.1% TFA), 311 nm sinapyl aldehyde: 10-47% acetonitrile (0.1% TFA), 280 nm p-coumaryl aldehyde: 10-47% acetonitrile (0.1% TFA), 315 nm

[2] = biological target: T2, glucosyltransferase 72E2 (UGT72E2) (Arabidopsis thaliana, UniProt Q9LVR1); experiment: Glucosyltransferase activity assay with 72E2, HPLC analysis; type: biochemical; conditions: substrate glucosylation; HPLC peak area; conditions for UGT72E1: 1 mM substrate, 5 mM UDP-glucose, pH 7.0, 30° C., 1 h
T2 sequence (Q9LVR1 1-481): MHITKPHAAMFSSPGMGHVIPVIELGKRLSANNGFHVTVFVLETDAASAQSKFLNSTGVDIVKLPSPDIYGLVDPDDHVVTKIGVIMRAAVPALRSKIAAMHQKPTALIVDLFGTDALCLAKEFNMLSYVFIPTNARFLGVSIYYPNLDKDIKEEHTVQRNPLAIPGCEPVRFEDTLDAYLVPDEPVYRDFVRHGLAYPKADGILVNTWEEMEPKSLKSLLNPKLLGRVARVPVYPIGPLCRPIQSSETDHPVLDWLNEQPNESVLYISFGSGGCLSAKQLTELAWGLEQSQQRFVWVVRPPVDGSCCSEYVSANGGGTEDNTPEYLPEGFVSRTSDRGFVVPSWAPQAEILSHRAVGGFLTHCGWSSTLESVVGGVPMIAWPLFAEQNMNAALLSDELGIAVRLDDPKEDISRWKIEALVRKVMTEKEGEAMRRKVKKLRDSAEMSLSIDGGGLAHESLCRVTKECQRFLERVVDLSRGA

SMILES	Activity (area, uv × sec) 72E1 [1] [uv × sec]	Activity (area, uv × sec) 72E2 [2] [uv × sec]
COc1cc(/C=C/CO)ccc1O [Coniferyl alcohol]	3225766	29756923
COc1cc(/C=C/C=O)ccc1O [Coniferyl aldehyde]	21950129	5068215
COc1cc(/C=C/CO)cc(OC)c1O [Sinapyl alcohol]	0	3339410
COc1cc(/C=C/C=O)cc(OC)c1O [Sinapyl aldehyde]	13655427	37002362
OC/C=C/c1ccc(O)cc1 [p-coumaryl alcohol]	0	0
O=C/C=C/c1ccc(O)cc1 [p-coumaryl aldehyde]	9243651	2612331
